Source: paper PMC8305652, “Copper(II) Complexes Containing Natural Flavonoid Pomiferin Show Considerable In Vitro Cytotoxicity and Anti-inflammatory Effects” (International Journal of Molecular Sciences, 2021)

Assays:
A2780 cells = experiment: mitochondrial membrane potential, MITO-ID flow cytometry; assay type: cell-based, human; conditions: A2780, 15 µM, 24 h; compared with cisplatin
Protocol: After 24 h, the cells were washed once with PBS (0.1 M, pH 7.4), detached with trypsin (0.25% in ethylenediaminetetraacetic acid (EDTA), Sigma-Aldrich), and resuspended in 500 µL of culture medium. Then the staining was performed using MITO-ID® Membrane potential detection kit (Enzo Life Sciences, Farmingdale, NY, USA) according to the manufacturer’s protocol and samples were measured in three independent experiments, each time in duplicates on BD FACSVerse flow cytometer (Becton Dickinson, Franklin Lakes, NJ, USA), while at least 10^4 events were recorded for each sample.

[1] = tested on: IκB and MAPKs p38, ERK1/2, JNK in THP-1 macrophages; experiment: IκB and MAPK signalling pathways, Western blot; assay type: cell-based, human; conditions: 200 nM, 1 h pre-treatment, 30 min after LPS
Protocol: Macrophages derived from THP-1 cells were used to evaluate the influence of tested complexes on the signalling pathway leading to activation of transcription factors NF-κB and AP-1. To differentiate THP-1 monocytes into macrophages, the cells were stimulated with phorbol myristate acetate (PMA), as described above. The level of inhibitor of NF-κB (IĸB) and phosphorylation (activation) of mitogen-activated protein kinases (MAPKs) p38, ERK1/2, and JNK was determined in a way similar to that described previously. Above mentioned proteins were detected by the following primary antibodies: anti-IĸB-α at the dilution 1:500 (Cell Signalling, Danvers, MA, USA; products No. 4814), anti-phospho-SAPK/JNK at the dilution 1:500 (Cell Signalling; products No. 4668), anti-p44/42 MAPK (ERK1/2) at the dilution 1:1000 (Cell Signalling; products No. 4695), anti-phospho-p44/42 MAPK (ERK1/2) at the dilution 1:1000 (Cell Signalling; products No. 4370), anti-p38 MAPK at the dilution 1:1000 (Cell Signalling; products No. 9212), anti-phospho-p38 MAPK antibodies at the dilution 1:1000 (Cell Signalling; products No. 4511), anti-SAPK/JNK at a dilution of 1:250 (Sigma-Aldrich, product No. SAB4200176), and anti-β-actin at a dilution of 1:5000 (Abcam, Cambridge, UK; product No. 8226). […] The amount of bound secondary antibody was determined using ECL reagent (Bio-Rad, Hercules, CA, USA). […]

[2] = tested on: TNF-α in differentiated THP-1 macrophages; experiment: TNF-α secretion, ELISA; assay type: cell-based, human; conditions: 200 nM, 1 h pre-treatment, LPS 1 µg/mL, 24 h
Protocol: Differentiated THP-1 macrophages (see above) were pre-treated with either 200 nM solutions of the tested complexes, or 200 nM solution of prednisone dissolved in 0.1% DMF or the vehicle (0.1% (v/v) DMF solution) for 1 h, as described previously. The concentration of TNF-α was measured using a Human TNF-α ELISA Kit (Diaclone, Besançon, France), according to the manufacturer’s manual. Each experiment was conducted in triplicate.

[3] = tested on: colorectal adenocarcinoma (Caco-2); experiment: in vitro cytotoxicity, MTT assay; assay type: cell-based, human; conditions: at least three independent experiments
[4] = tested on: NF-κB in differentiated THP-1 macrophages; experiment: immunocytochemical analysis of NF-κB nuclear translocation; assay type: cell-based, human; conditions: 200 nM, 1 h pre-treatment, 1 h LPS (1 µg/mL), fluorescence microscopy
Protocol: To differentiate the THP-1 monocytes to macrophages, phorbol myristate acetate (PMA) was used at the final concentration of 50 ng/mL. The cells were split into 8-well cell culture glass slides (SPL, Gyeonggi-do, South Korea) at a concentration of 3 × 10^5 cells/300 µL/well. Monocytes were differentiated by PMA treatment for 24 h and then the medium was changed. Macrophages were washed with PBS, transferred into a serum-free medium and incubated for 2 h. After 1 h pre-treatment with 5 (200 nM), prednisone (200 nM) or 0.1% DMF (v/v) solution used as a control, NF-κB nuclear translocation was triggered by the addition of LPS (1 µg/mL). The macrophages were washed with PBS and fixed with 4% formaldehyde 1 h later. Permeabilization was performed using 0.1% v/v Triton X-100 (Merck). After blocking with 3% bovine serum albumin (BSA; Merck, Darmstadt, Germany) dissolved in PBS, the primary antibody anti-NF-κB p65 (Abcam, Cambridge, UK, product No. ab16502) was added at a concentration of 2.5 µg/mL and incubated at 4 °C overnight. Then a secondary anti-rabbit antibody labelled by Alexa Fluor 488® (Cell Signalling, Danvers, MA, USA) product No. 4412, dilution 1:1500) was applied in dark at 4 °C for 1 h. […] The NF-κB migration activity was evaluated by fluorescent microscopy after the nail polish cured using the fluorescence microscope IX73 (Olympus, Tokyo, Japan).

NF-κB = tested on: NF-κB; design: method as in PMID 23947936; conditions: 1.25 µM; cited from earlier work
[5] = tested on: ACHN, NCI-H23, PC-3, MDA-MB-231, LOX-IMVI, colon carcinoma cell lines; design: method as in PMID 17662606; conditions: 24 h of incubation, range over cell lines; cited from earlier work

| Compound | damage of mitochondrial function (membrane potential) (A2780 cells) | IκB and MAPK intracellular signalization [1] | secretion of TNF-α [2] | IC50 ([3]; mean ± SD) [µM] | NF-κB nuclear translocation [4] | NF-κB activation by inhibition of IκB degradation (NF-κB) | IC50 ([3]; Homo sapiens, Caco-2, mean ± SD) [µM] | GI50 [5] [µM] |
| --- | --- | --- | --- | --- | --- | --- | --- | --- |
| CC(C)=CCc1c2c(c3occ(-c4ccc(O)c(O)c4)c(=O)c3c1[O-])C=CC(C)(C)O2.Cc1ccnc(-c2cc(C)ccn2)c1.O.O.O=[N+]([O-])[O-].[Cu+2] [Complex 2, (3-(3,4-dihydroxyphenyl)-8,8-dimethyl-6-(3-methylbut-2-en-1-yl)-4H,8H-benzo[1,2-b:3,4-b′]dipyran-4-one-5-olato-κ^2O4:O5)(4,4′-dimethyl-2,2′-bipyridine–κ^2N:N)copper(II) nitrate dihydrate] | strong ability | did not affect the intracellular signalization | decreased its production | 5.1 ± 1.6 | – | – | – | – |
| CC(C)=CCc1c2c(c3occ(-c4ccc(O)c(O)c4)c(=O)c3c1[O-])C=CC(C)(C)O2.CO.O=[N+]([O-])[O-].[Cu+2].c1ccc(-c2ccnc3c2ccc2c(-c4ccccc4)ccnc23)cc1 [Complex 4, (3-(3,4-dihydroxyphenyl)-8,8-dimethyl-6-(3-methylbut-2-en-1-yl)-4H,8H-benzo[1,2-b:3,4-b′]dipyran-4-one-5-olato-κ^2O4:O5)(4,7-diphenyl-1,10-phenanthroline–κ^2N:N)copper(II) nitrate methanol solvate] | strong ability | – | did not affect the TNF-α synthesis | 22.9 ± 12.9 | blocked the nuclear translocation | – | – | – |
| CC(C)=CCc1c2c(c3occ(-c4ccc(O)c(O)c4)c(=O)c3c1O)C=CC(C)(C)O2 [pomiferin, 3-(3,4-dihydroxyphenyl)-5-hydroxy-8,8-dimethyl-6-(3-methylbut-2-ene-1-yl)-4H,8H-benzo[1,2-b:3,4-b′]dipyran-4-one] | strong ability | – | – | – | – | inhibited NF-κB activation | 19.8 ± 2.4 | 1.32 to 13.3 |
| (3-(3,4-dihydroxyphenyl)-8,8-dimethyl-6-(3-methylbut-2-en-1-yl)-4H,8H-benzo[1,2-b:3,4-b′]dipyran-4-one-5-olato-κ^2O4:O5)(dipyrido[3,2-a:2′,3′-c]phenazine–κ^2N4:N5)copper(II) nitrate methanol solvate [Complex 5] | – | did not affect the intracellular signalization | decreased its production | – | the NF-κB levels in the nucleus decreased | – | – | – |
